Measurements: US9513294B2, “Megastokes amino-triazolyl-BODIPY compounds and applications to live neuron staining and human serum albumin FA1 drug site probing” (National University of Singapore, priority 2012, dated 2016)
Each block holds one compound with its values, some of them ahead of it.

Key:
[1] = Quantum yield measurements versus Acridine Yellow in EtOH; assay type: physicochemical; settings: for φ (%): quantum yield; for φ (quantum yield): excitation 460 nm
Method: (§1) ^1H-NMR, ^19F-NMR and ^13C-NMR spectra were recorded on Bruker ACF300 (300 MHz), DPX300 (300 MHz) and AMX500 (500 MHz) spectrometers. High resolution mass spectra (ESI) were obtained on a Finnigan/MAT 95XL-T spectrometer. Spectroscopic and quantum yield data were measured on a SpectraMax M2 spectrophotometer (Molecular Devices). Data analysis was performed using GraphPrism 5.0. Analytical characterization was performed on a HPLC-MS (Agilent-1200 series) with a DAD detector and a single quadrupole mass spectrometer (6130 series) with an ESI probe. Analytical HPLC method: eluents, A: H2O (0.1% HCOOH), B: CH3CN (0.1% HCOOH), gradient 5% B to 95% B (10 min). Reverse-phase Phenomenex C18 Luna column (4.6×50 mm^2, 3.5 […]), flow rate: 1 mL/min.
Quantum yields were calculated by measuring the integrated emission area of the fluorescent spectra and comparing to the area measured for Acridine Yellow in EtOH when excited at 460 nm (Φfluorescence^AcridineYellow=0.47). Quantum yields for the amino-triazolyl-BODIPYs were calculated using the equation below, where F represents the area of fluorescent emission, η is the refractive index of the solvent, and Abs is absorbance at the excitation wavelength selected for standards and samples. Emission was integrated between 510 and 700 nm.

[2] = Absorbance and fluorescence emission spectra (SpectraMax M2); assay type: physicochemical; settings: for λmax Absorp. (nm) / λmax Emission (nm): MKCA compound library; for λmax Absorp. (nm) / λmax Abs. (nm): absorbance maximum; for λmax Emission (nm) / λmax Em. (nm): fluorescence emission maximum; for λmax Abs. (nm) / λmax Em. (nm): MKAC compound library
Method: BDC-8 (Blue): absorbance λmax=473 nm, emission λmax=585 nm; MK101-8 (Green): absorbance λmax=474 nm, emission λmax=563 nm; MKHA374-48 (Yellow): absorbance λmax=468 nm, λem=557 nm. The corresponding spectra of a reported BODIPY (BD-27; Red) are also included for comparison: absorbance λmax=551 nm, emission λmax=568 nm. The structures of BDC-8, MK101-8, MKHA374-48 and BD-27 are also depicted.
as §1

SMILES: Cc1ccccc1CNC1=[N+]2C(=C(c3ccc(N)cc3)c3ccc(-n4cc(CC(C)C)nn4)n3[B-]2(F)F)C=C1 [MK101-43]
φ (quantum yield) ([1]; MK library, Table 5): 2.36%
λmax Absorp. ([2]; MK library, Table 5): 474 nm
λmax Emission ([2]; MK library, Table 5): 562 nm

SMILES: CC(=O)Nc1ccc(C2=C3C=CC(N4CCCCC4)=[N+]3[B-](F)(F)n3c2ccc3-n2cc(-c3ccc(N(C)C)cc3)nn2)cc1 [BDCAC-13]
φ (quantum yield) ([1]; BDCAC library, Table 3): 0.1%
λmax Absorp. ([2]; BDCAC library, Table 3): 467 nm
λmax Emission ([2]; BDCAC library, Table 3): 619 nm

SMILES: Nc1ccc(C2=C3C=CC(NCc4cc(F)cc(F)c4)=[N+]3[B-](F)(F)n3c2ccc3-n2cc(C3CCCC3)nn2)cc1 [MK412-5]
φ (quantum yield) ([1]; MK library, Table 5): 0.68%
λmax Absorp. ([2]; MK library, Table 5): 476 nm
λmax Emission ([2]; MK library, Table 5): 567 nm

SMILES: CC(=O)Nc1ccc(C2=C3C=CC(N4CCCCC4)=[N+]3[B-](F)(F)n3c2ccc3-n2cc(-c3ccc(F)cc3F)nn2)cc1 [BDCAC-26]
φ (quantum yield) ([1]; BDCAC library, Table 3): 1.3%
λmax Absorp. ([2]; BDCAC library, Table 3): 465 nm
λmax Emission ([2]; BDCAC library, Table 3): 567 nm

SMILES: CC(C)CCc1cn(-c2ccc3n2[B-](F)(F)[N+]2=C(N4CCCCC4)C=CC2=C3c2ccc(NC(=O)CCl)cc2)nn1 [BDCCA-36]
φ (quantum yield) ([1]; BDCCA library, Table 4): 0.5%
λmax Absorp. ([2]; BDCCA library, Table 4): 467 nm
λmax Emission ([2]; BDCCA library, Table 4): 584 nm

SMILES: CCOc1ccccc1CNC1=[N+]2C(=C(c3ccc(NC(=O)CCl)cc3)c3ccc(-n4cc(CC5CCCCC5)nn4)n3[B-]2(F)F)C=C1 [MKCA103-8]
φ (%) ([1]; MKCA compound library): 37.77%
λmax Absorp. (nm) [2]: 464 nm
λmax Emission (nm) [2]: 563 nm

SMILES: CCCCCC(O)c1cn(-c2ccc3n2[B-](F)(F)[N+]2=C(NCc4cc(OC)ccc4OC)C=CC2=C3c2ccc(NC(=O)CCl)cc2)nn1 (stereo not drawn) [MKCA181-69]
φ (%) ([1]; MKCA compound library): 14.25%
λmax Absorp. (nm) [2]: 465 nm
λmax Emission (nm) [2]: 558 nm

SMILES: CC(C)Cc1cn(-c2ccc3n2[B-](F)(F)[N+]2=C(N4CCCCC4)C=CC2=C3c2ccc(NC(=O)CCl)cc2)nn1 [BDCCA-43]
φ (quantum yield) ([1]; BDCCA library, Table 4): 0.8%
λmax Absorp. ([2]; BDCCA library, Table 4): 466 nm
λmax Emission ([2]; BDCCA library, Table 4): 583 nm

SMILES: CCCCc1ccc(-c2cn(-c3ccc4n3[B-](F)(F)[N+]3=C(N5CCCCC5)C=CC3=C4c3ccc(NC(=O)CCl)cc3)nn2)cc1 [BDCCA-12]
φ (quantum yield) ([1]; BDCCA library, Table 4): 1.6%
λmax Absorp. ([2]; BDCCA library, Table 4): 464 nm
λmax Emission ([2]; BDCCA library, Table 4): 552 nm

SMILES: CCCCCCCCc1cn(-c2ccc3n2[B-](F)(F)[N+]2=C(N4CCCCC4)C=CC2=C3c2ccc(N)cc2)nn1 [BDC-44]
φ (quantum yield) ([1]; BDC library, Table 2): 0.13%
λmax Absorp. ([2]; BDC library, Table 2): 475 nm
λmax Emission ([2]; BDC library, Table 2): 583 nm

Now from value to compound:

φ (%) ([1]; MKCA compound library): 3.03%
λmax Absorp. (nm) [2]: 462 nm
λmax Emission (nm) [2]: 580 nm
SMILES: CN(Cc1ccccc1)Cc1cn(-c2ccc3n2[B-](F)(F)[N+]2=C(N(C)Cc4ccccc4)C=CC2=C3c2ccc(NC(=O)CCl)cc2)nn1 [MKCA195-18]

φ (%) ([1]; MKCA compound library): 29.92%
λmax Absorp. (nm) [2]: 466 nm
λmax Emission (nm) [2]: 562 nm
SMILES: Cc1ccccc1CNC1=[N+]2C(=C(c3ccc(NC(=O)CCl)cc3)c3ccc(-n4cc(CC(C)C)nn4)n3[B-]2(F)F)C=C1 [MKCA101-43]

φ (%) ([1]; MKAC compound library): 1.85%
λmax Abs. (nm) [2]: 465 nm
λmax Em. (nm) [2]: 575 nm
SMILES: CC(=O)Nc1ccc(C2=C3C=CC(N(C)Cc4ccccc4)=[N+]3[B-](F)(F)n3c2ccc3-n2cc(CN(C)Cc3ccccc3)nn2)cc1 [MKAC195-18]

φ (quantum yield) ([1]; BDCAC library, Table 3): 0.9%
λmax Absorp. ([2]; BDCAC library, Table 3): 467 nm
λmax Emission ([2]; BDCAC library, Table 3): 580 nm
SMILES: CC(=O)Nc1ccc(C2=C3C=CC(N4CCCCC4)=[N+]3[B-](F)(F)n3c2ccc3-n2cc(CCc3ccccc3)nn2)cc1 [BDCAC-19]

φ (quantum yield) ([1]; BDCAC library, Table 3): 0.8%
λmax Absorp. ([2]; BDCAC library, Table 3): 465 nm
λmax Emission ([2]; BDCAC library, Table 3): 588 nm
SMILES: CC(=O)Nc1ccc(C2=C3C=CC(N4CCCCC4)=[N+]3[B-](F)(F)n3c2ccc3-n2cc(CN(C)Cc3ccccc3)nn2)cc1 [BDCAC-18]

φ (%) ([1]; MKCA compound library): 21.65%
λmax Absorp. (nm) [2]: 462 nm
λmax Emission (nm) [2]: 563 nm
SMILES: COc1ccc(OC)c(CNC2=[N+]3C(=C(c4ccc(NC(=O)CCl)cc4)c4ccc(-n5cc(CN(C)Cc6ccccc6)nn5)n4[B-]3(F)F)C=C2)c1 [MKCA181-18]

φ (%) ([1]; MKAC compound library): 21.57%
λmax Abs. (nm) [2]: 464 nm
λmax Em. (nm) [2]: 562 nm
SMILES: CCCC(C)c1cn(-c2ccc3n2[B-](F)(F)[N+]2=C(NCc4ccccc4C)C=CC2=C3c2ccc(NC(C)=O)cc2)nn1 (stereo not drawn) [MKA101-3]
